Data taken from the NIST ThermoML archive (doi:10.1016/j.jct.2015.01.014).
Numbers after ± are expanded uncertainties.

Settings: Liquid, Transpiration method

OCCCO [propan-1,3-diol]
Settings	vapor or sublimation pressure [kPa]
292.5 K	0.00167 ± 0.00012
296.4 K	0.00239 ± 0.00015
300.4 K	0.00346 ± 0.00023
306.3 K	0.00584 ± 0.00041
338.7 K	0.08145 ± 0.0052
344.3 K	0.1208 ± 0.0077
346.4 K	0.139 ± 0.0087
